According to patent US12419889B2, “Methods of treating chronic spontaneous urticaria using a bruton's tyrosine kinase inhibitor” (NOVARTIS AG, priority 2019, dated 2025):

Columns and labels:
[1] = First-in-human study, blood and urine PK (SAD, MAD q.d., b.i.d.); type: in vivo; conditions: for drug accumulation ratio (Racc): MAD q.d.
Experimental: A first-in-human study was conducted to assess the safety and tolerability, pharmacokinetics (PK) and pharmacodynamics (PD) of single and multiple doses of compound (I) both as once daily (qd) and twice daily (bid) oral administration in healthy volunteers and those with atopic diathesis, to support further clinical development of compound (I) in autoimmune diseases. This study also explored the effect of food intake.
First-in-human study in up to approximately 168 healthy volunteers (HVs), of which 64 (in Parts 2 & 4) had asymptomatic atopic diathesis. • Part 1 was a double-blind (subject and investigator blind, sponsor unblinded), placebo-controlled single ascending dose (SAD) escalation study of 10 cohorts (N=80) • Part 2 was a double-blind (subject and investigator blind, sponsor unblinded), placebo-controlled multiple ascending dose (MAD) (13 doses over 12 days) escalation study employing once daily dosing in 6 cohorts in healthy volunteers with asymptomatic atopic diathesis (N=48) • Part 3 was a single dose open-label crossover food effect study in 12 HVs • Part 4 was a double-blind (subject and investigator blind, sponsor unblinded), placebo-controlled multiple dose (25 doses over 12 days) study employing twice daily dosing in 2 cohorts of healthy volunteers with asymptomatic atopic diathesis (N=16)
The SAD part (Part 1) had ten dose levels and the MAD parts (Parts 2 & 4) consisted of eight dose levels (6 cohorts using single daily dosing in Part 2 and 2 cohorts using twice daily dosing in Part 4). Eight subjects were randomized into each cohort to receive either compound (I) or matching placebo in a 6:2 (active: placebo) ratio in the SAD and MAD parts. Within the SAD part, doses up to approximately 4 times the estimated pharmacologically active dose (PAD) were to be evaluated before the MAD part of the study was started, providing there was no safety signal emerging from the SAD part until then.
In Part 1, subjects were admitted to the study site on Day −2 or −1 for baseline safety assessments and to confirm eligibility. Eligible subjects received a single dose of compound (I) or placebo under fasting conditions on Day 1. They were domiciled from Day −1 to the morning of Day 5 (96 hours post last drug administration).
In Parts 2 and 4, subjects were admitted on Day −2 or −1 for baseline safety assessments and to confirm eligibility. Eligible subjects received the first dose of compound (I) under fasting conditions on Day 1, and continued to take study medication under fasting conditions up to and including Day 12. Subjects were domiciled from Day −2 or −1 until the morning of Day 16, which equals 96 hours after the last dose of compound (I) was received. In Parts 2 and 4, the study medication was given once daily and twice daily respectively (details are found in the schedule of assessments).
Subjects were assigned to one of the following 10 cohorts. In each cohort, 8 subjects were randomized to either compound (I) or matching placebo in an overall 6:2 ratio. The first sub-cohort was randomized in a 1:1 ratio as one subject on compound (I) and one on matching placebo. […]

BTK = target: T1, BTK (Rattus norvegicus, UniProt Q5S255); assay: BTK occupancy ex vivo immunoassay in rat tissues after oral dosing
T1 construct: Unoccupied BTK, as well as total BTK relative protein levels were determined in lysates of selected tissues; from tissue; host or cells: rat spleen, blood, lymph nodes, lung
Experimental: The in vivo PD effects of an irreversible BTK inhibitor like compound (I) are determined by the extent and duration of covalent BTK occupancy by the inhibitor. BTK occupancy after treatment with Compound of Formula (I) (also referenced to as Compound (I)) was measured in an ex vivo immunoassay. The fraction of unoccupied BTK protein was assayed after in vitro incubation with a covalent biotinylated BTK probe, since compound (I) and the probe bind to BTK in a mutually exclusive manner. Unoccupied BTK, as well as total BTK relative protein levels were determined in lysates of selected tissues and levels of unoccupied BTK were normalized to total BTK protein levels in the same samples.
From the experimental data it was apparent that a short transient systemic exposure of compound (I) is sufficient to achieve full BTK occupancy in several tissues at low oral doses of 1-3 mg/kg. […] This very low and transient systemic exposure is consistent with the PK/PD model typical of irreversible inhibitors.
The duration of BTK occupancy was determined in rats and mice after single oral dose of compound (I) for spleen, blood, lymph nodes and lung. […] The longer persistence of BTK occupancy in blood has been reported before (Advani et al 2013, J Clin Onc; 31(1):88-94).

[2] = Safety and tolerability in healthy volunteers; type: in vivo, human
Experimental: Standard safety monitoring was used throughout all study parts. A dedicated assessment of potential skin bruising events were included. All vital signs, physical examination and subject history, ECGs, adverse events, and laboratory safety parameters (blood chemistry, hematology and urinalysis) up to 96 hours post last dose as well as PK data from the previous dose group (if available) up to 48 hours post last dose were to be reviewed in a blinded fashion for each cohort before dose escalation. Summary safety reports of reported adverse events, clinical safety laboratory parameters, QTc and heart rate were provided after completion of each dose level.
For the analysis of adverse effects, the Placebo subjects from all SAD and MAD cohorts (2 per cohort) and separated by the SAD and MAD parts were pooled into one Placebo group (n=20 for SAD and n=16 for MAD) to be compared with each single compound (I) dose group (n=6 each) and the total compound (I) group (n=60 for SAD and n=48 for MAD). There were no apparent major differences in the demographic data between placebo and the active groups both for the SAD and MAD populations.

T1 sequence (Q5S255 1-660): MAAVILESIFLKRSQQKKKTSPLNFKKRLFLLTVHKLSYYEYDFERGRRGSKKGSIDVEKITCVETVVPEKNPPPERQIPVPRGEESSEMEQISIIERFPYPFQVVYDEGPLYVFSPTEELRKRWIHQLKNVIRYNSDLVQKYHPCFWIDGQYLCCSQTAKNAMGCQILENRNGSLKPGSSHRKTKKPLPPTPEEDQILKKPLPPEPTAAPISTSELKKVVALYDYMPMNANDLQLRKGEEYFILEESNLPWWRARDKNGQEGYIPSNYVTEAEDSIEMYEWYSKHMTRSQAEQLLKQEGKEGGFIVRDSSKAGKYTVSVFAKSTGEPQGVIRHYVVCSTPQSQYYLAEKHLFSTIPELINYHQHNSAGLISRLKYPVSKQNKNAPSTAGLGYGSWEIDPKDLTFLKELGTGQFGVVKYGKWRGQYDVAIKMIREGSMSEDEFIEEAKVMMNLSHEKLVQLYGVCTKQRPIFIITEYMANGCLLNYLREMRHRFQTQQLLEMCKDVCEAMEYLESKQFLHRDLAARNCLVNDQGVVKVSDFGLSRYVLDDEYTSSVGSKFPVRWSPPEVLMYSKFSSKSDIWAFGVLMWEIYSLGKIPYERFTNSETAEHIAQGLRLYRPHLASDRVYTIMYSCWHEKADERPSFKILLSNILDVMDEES

C=CC(=O)N(C)CCOc1c(N)ncnc1-c1cc(F)cc(NC(=O)c2ccc(C3CC3)cc2F)c1C [Compound (I), N-(3-(6-Amino-5-(2-(N-methylacrylamido)ethoxy)pyrimidin-4-yl)-5-fluoro-2-methylphenyl)-4-cyclopropyl-2-fluorobenzamide]
Renal clearance, mean ± SD ([1]; Day 12, 400 mg qd): 16.9 ± 7.13 mL/min
drug accumulation ratio (Racc) ([1]; day 12 vs day 1, high dose): 1.2
drug accumulation ratio (Racc) ([1]; day 12 vs day 1, low dose): 5
MRT, median ([1]; blood, Day 1, 10 mg qd): 46 min
MRT, median ([1]; blood, Day 1, 25 mg qd): 70.2 min
AUC0-24, median ([1]; blood, Day 1, 600 mg qd): 932 ng·h/mL
CLss/F, mean ± SD ([1]; blood, Day 12, 10 mg qd): 425 ± 64.8 L/h
CLss/F, median (min-max) ([1]; blood, Day 12, 10 mg qd): 423 (341-529) L/h
AUC0-24, mean ± SD ([1]; blood, Day 12, 25 mg qd): 117 ± 60.9 ng·h/mL
AUClast, mean ± SD ([1]; blood, Day 12, 25 mg qd): 114 ± 59.7 ng·h/mL
CLss/F, mean ± SD ([1]; blood, Day 12, 25 mg qd): 307 ± 253 L/h
CLss/F, median (min-max) ([1]; blood, Day 12, 25 mg qd): 248 (129-809) L/h
AUC0-24, mean ± SD ([1]; blood, Day 12, 50 mg qd): 209 ± 80.2 ng·h/mL
AUC0-24, median (min-max) ([1]; blood, Day 12, 50 mg qd): 181 (127-325) h * ng/mL
CLss/F, mean ± SD ([1]; blood, Day 12, 50 mg qd): 268 ± 92.8 L/h
CLss/F, median (min-max) ([1]; blood, Day 12, 50 mg qd): 276 (154-395) L/h
CLss/F, mean ± SD ([1]; blood, Day 12, 100 mg qd): 198 ± 88.7 L/h
CLss/F, median (min-max) ([1]; blood, Day 12, 100 mg qd): 166 (129-298) L/h
CLss/F, mean ± SD ([1]; blood, Day 12, 400 mg qd): 366 ± 150 L/h
CLss/F, median (min-max) ([1]; blood, Day 12, 400 mg qd): 351 (177-591) L/h
CLss/F, mean ± SD ([1]; blood, Day 12, 600 mg qd): 521 ± 131 L/h
CLss/F, median (min-max) ([1]; blood, Day 12, 600 mg qd): 569 (345-661) L/h
Cmax, median (min-max) ([1]; blood, Day 12, 600 mg qd): 475 (377-985) ng/mL
increase of Cmax from 100 mg to 200 mg b.i.d. ([1]; day 12): 1.33 fold
oral blood clearance CL/F, estimate across all cohorts ([1]; single dose, all SAD cohorts): about 383 L/h
spleen BTK occupancy (BTK; female rats, single oral dose 3 mg/kg): full
BTK occupancy half-life in spleen (BTK; rat spleen, single oral dose, estimated): approximately 5 hours
BTK occupancy half-life in blood (BTK; rats, single oral dose): approximately 87 hours
serious or severe adverse events related to intake ([2]; 0.5 mg to 600 mg): no serious or severe adverse event
tolerability ([2]; 0.5 mg to 600 mg, single dose or up to 18 days once or twice daily): well tolerated
safety assessment of the FIH study ([2]; dosing up to 600 mg): does not reveal significant safety concerns
